Read-outs that look alike come from different tables or passages of the source. Blank lines part the entries; values can stand above or below the molecule they belong to.
What was measured:
[1] = molecular target: T1, cIAP2-BIR3 (Homo sapiens, UniProt Q13489); assay: Fluorescence polarization binding, cIAP2 BIR3
T1 construct: 6xHis (C); made in house; host or cells: Escherichia coli BL21(DE3)
Experimental: (§1) The plasmids were used to transform Escherichia coli strain BL21(DE3). The recombinant proteins were purified using Ni-NTA (His-trap FFcrude, Ge-Healthcare), followed by gel filtration (Superdex 200, Ge-Healthcare). The recombinant proteins were eluted in 20 mM Tris pH 8.0, 250 mM NaCl and 10 mM DTT. Aliquoted proteins were conserved at −80° C.
(§2) The fluorescently-labelled Smac peptide (AbuRPF-K(5-Fam)-N1-12, final concentration of 2 nM), and increasing concentrations of cIAP1- and cIAP2-BIR3 from 0 to 20 μM, were added to an assay buffer consisting of 100 mM potassium phosphate, pH 7.5, 100 μg/ml bovine γ-globulin, 0.02% sodium azide. […] All experiments were performed in black, flat-bottom 96-well microplates (Greiner bio-one). 4-substituted azabicyclo[5.3.0]alkane Smac-mimetics were evaluated for their ability to displace the fluorescent probe from recombinant protein. […] After 15 minutes mixing on a shaker, and 3 hours incubation at room temperature, fluorescent polarization was measured on the Ultra plate reader (Tecan).

[2] = test system: MDA-MB-231 (breast epithelial adenocarcinoma); assay: Standalone cytotoxicity, MTT assay, MDA-MB-231; format: cell-based, human; details: reported as activity range, read-out: MDA-MB-231 IC50 (μM ± standard Deviation)
Experimental: (§3) Human cell lines MDA-MB-231 (breast epithelial adenocarcinoma), HL-60 (promieloblast cells) and PC-3 (prostate adenocarcinoma cells) were purchased from Istituto Zooprofilattico di Brescia (www.bs.izs.it). Reagents for cell culture were purchased from Sigma, unless otherwise indicated. Cells were grown on Plastic Petri dishes (Falcon) in RPMI 1640 medium supplemented with 2 mM L-glutamine, Penicillin (100 U/mL)/Streptomicin (100 μg/mL), 10% Fetal Bovine Serum. A sub-cultivation ratio of 1:4 was used. Cells were maintained at 37° C. in an atmosphere of 95% air and 5% CO2.
(§4) Cells were seeded in 96-well flat bottom cell culture plates at a density of 5000 cells/well in 100 μL of culture medium. HL-60 cells were immediately stimulated with the indicated compounds for 96 hours in the incubator. MDA-MB-231 and PC-3 cells were allowed to adhere for 24 hours. prior to be exposed to the compounds for 96 hours in the incubator. Cells were exposed to the following concentrations of the compounds: 50 nM, 100 nM, 200 nM, 500 nM, 1 μM, 5 μM, 10 μM, 50 μM and 100 μM. Each point was done in triplicate. The cellular growth inhibitory effect of our compounds was evaluated using the MTT assay (Sigma). After 96 hours of treatment, 10 μL of MTT reagent solution (5 mg of MTT powder/mL diluted in Phosphate Buffer Salt saline solution) were added in each well and allowed to react for 3 hours in the incubator. After 3 hours cells were solubilized in Lysis Buffer (10% SDS/0.1% HCl in water, 100 μL for each well) for 24 hours at 37° C. Finally, the absorbance was measured at 570 nm using a multiplate reader. Absorbance values were collected and IC50 values were determined using GraphPad Prism5 software. The experiments were repeated twice.
(§5) After 96 hours of treatment, 10 μl of MTT reagent solution (5 mg of MTT powder/ml diluted in Phosphate Buffer Salt saline solution) were added in each well and allowed to react for 3 hours in the incubator. After 3 hours cells were solubilized in Lysis Buffer (10% SDS/0.1% HCl in water, 100 μl for each well) for 24 hours at 37° C. Finally, the absorbance was measured at 570 nm using a multiplate reader. Absorbance values were collected and IC50/IC80 values were determined using GraphPad Prism5 software.

[3] = test system: HL-60 (promieloblast cells); assay: Standalone cytotoxicity, MTT assay, HL-60; format: cell-based, human; details: reported as activity range, read-out: HL-60 IC50 (μM ± standard Deviation)
Experimental: as §3
as §4, with “The experiments were repeated twice.” left out
as §5, with “After 3 hours cells were solubilized in Lysis Buffer (10% SDS/0.1% HCl in water, 100 μl for each well) for 24 hours at 37° C.” left out

[4] = test system: PC-3 (prostate adenocarcinoma cells); assay: Standalone cytotoxicity, MTT assay, PC-3; format: cell-based, human; details: 96 hours treatment, reported as activity range, read-out: PC-3 IC50 (μM ± standard Deviation)
Experimental: as §3
as §4, with “The experiments were repeated twice.” left out
as §5, with “After 3 hours cells were solubilized in Lysis Buffer (10% SDS/0.1% HCl in water, 100 μl for each well) for 24 hours at 37° C.” left out

[5] = test system: IGROV-1 human ovarian carcinoma xenografted i.p.; assay: Ovarian tumor i.p. xenograft, survival; format: in vivo, athymic nude mice; details: 5 mg/kg, qdx4-5/wx2-3w, IGROV-1 i.p.
Experimental: (§6) All experiments of antitumor activity were carried out using female athymic Swiss nude mice, 8-10 weeks-old (Charles River, Calco, Italy). Mice were maintained in laminar flow rooms keeping temperature and humidity constant. Mice had free access to food and water. Experiments were approved by the Ethics Committee for Animal Experimentation of the Istituto Nazionale Tumori of Milan according to institutional guidelines.
(§7) Chem. Soc. […] The drugs were delivered i.p. in a volume of 10 ml/Kg of body weight.
The IGROV-1 tumor was adapted to grow in the peritoneal cavity (i.p.) and maintained by serial i.p. passages of ascitic cells into healthy mice. In this tumor model, hemorrhagic ascites with diffuse peritoneal carcinomatosis develops and the animal eventually die. For evaluation of antitumor activity, 2.5×10^6 ascitic cells in 0.2 ml of saline were injected i.p. into mice. Locoregional administration was employed. […] For antitumor activity studies, experimental groups were inspected daily and weighed three times weekly. Prior to impending death, mice were sacrificed by cervical dislocation and day of sacrifice was considered as day of death and the median survival time (MST) was calculated for each group. Antitumor activity was assessed as T/C %, i.e., the ratio of MST in treated mice over that of control mice×100. For statistical analysis, percent survivorship over time was estimated by the Kaplan-Meier product method and compared using the log-rank test.
Treatment started the day after tumor cell inoculation.

[6] = test system: IGROV-1 human ovarian carcinoma xenografted s.c.; details: for TVI %, tumor volume inhibition % in treated over control mice: assessed 7 days after last treatment
Experimental: as §6, §7
For subcutaneous (s.c.) growth, exponentially growing tumor cells (5×10^6 cells/mouse) were s.c. injected into the right flank of athymic nude mice. The tumor line was achieved by serial s.c. passages of fragments (about 2×2×6 mm) from regrowing tumors into healthy mice. Groups of five mice bearing bilateral s.c. tumors were employed. Tumor fragments were implanted on day 0 and tumor growth was followed by biweekly measurements of tumor diameters with a Vernier caliper. […] Treatment started three days after tumor implant, when tumors were just palpable. […] The toxicity of the drug treatment was determined as body weight loss and lethal toxicity. Deaths occurring in treated mice before the death of the first control mouse were ascribed to toxic effects. Student t test (two tailed) exact test was used for statistical comparison of tumor volumes in mice.

[7] = molecular target: T2, human XIAP BIR3 domain (Homo sapiens, UniProt P98170); assay: Fluorescence polarization competitive binding, XIAP BIR3; details: displacement of FITC-SMAC probe from XIAP BIR3-His-tag (60 nM); average of three independent measurements
T2 construct: human XIAP BIR3 domain from residue 241 to 356; made in house; host or cells: Escherichia coli BL21
T2 sequence (P98170 241-356): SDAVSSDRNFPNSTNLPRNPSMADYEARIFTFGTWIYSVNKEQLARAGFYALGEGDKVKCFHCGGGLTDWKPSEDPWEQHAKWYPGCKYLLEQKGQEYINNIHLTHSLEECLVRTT
Experimental: (§8) Data were analyzed using Prism 4.0 software (Graphpad Software).

[8] = molecular target: T3, human XIAP linker-BIR2-BIR3 (Homo sapiens, UniProt P98170); assay: Fluorescence polarization competitive binding, XIAP linker-BIR2-BIR3; details: displacement of SMAC-1F probe (1 nM) from XIAP linker-BIR2-BIR3-His-tag (3 nM); average of three independent measurements
T3 construct: human XIAP from residue 124 to 356 (linker-BIR2-BIR3); made in house; host or cells: Escherichia coli BL21
T3 sequence (P98170 124-356): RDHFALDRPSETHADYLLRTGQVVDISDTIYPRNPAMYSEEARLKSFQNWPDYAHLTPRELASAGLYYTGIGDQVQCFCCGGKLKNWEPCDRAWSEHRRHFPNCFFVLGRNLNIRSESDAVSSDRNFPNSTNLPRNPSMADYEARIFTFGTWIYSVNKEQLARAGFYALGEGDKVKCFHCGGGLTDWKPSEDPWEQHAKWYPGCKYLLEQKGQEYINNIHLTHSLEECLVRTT
Experimental: as §8

[9] = molecular target: T4, cIAP1-BIR3 (Homo sapiens, UniProt Q13490); assay: Fluorescence polarization binding, cIAP1 BIR3; details: displacement of fluorescent probe (2 nM) from cIAP1-BIR3 (10 nM); average of three independent measurements; read-out: cIAP1 IC50(av)
T4 construct: 6xHis (C); made in house; host or cells: Escherichia coli BL21(DE3)
T4 sequence (Q13490 251-363): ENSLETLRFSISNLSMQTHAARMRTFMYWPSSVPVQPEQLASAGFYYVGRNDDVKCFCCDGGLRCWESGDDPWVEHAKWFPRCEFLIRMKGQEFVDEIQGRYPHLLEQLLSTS
Experimental: as §1, §2

[10] = Homo sapiens, MDA-MB-231, 96 hours treatment
[11] = Homo sapiens, HL-60, 96 hours treatment
[12] = i.p., 5 mg/kg, qdx4-5/wx3w, IGROV-1 s.c.
[13] = displacement of fluorescent probe (2 nM) from cIAP2 (25 nM), average of three independent measurements, read-out: cIAP2 IC50(av)

T1 sequence (Q13489 237-349): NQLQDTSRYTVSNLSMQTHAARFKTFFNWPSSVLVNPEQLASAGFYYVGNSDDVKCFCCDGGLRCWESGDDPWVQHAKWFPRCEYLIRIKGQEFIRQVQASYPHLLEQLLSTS

SMILES: CC[C@H](NC)C(=O)N[C@@H]1C(=O)N2[C@@H](CC[C@@H]1CO)CC[C@H]2C(=O)N[C@@H](c1ccccc1)c1cn(CCCCc2ccc(CCCCn3cc([C@@H](NC(=O)[C@@H]4CC[C@@H]5CC[C@H](CO)[C@H](NC(=O)[C@H](CC)NC)C(=O)N54)c4ccccc4)nn3)cc2)nn1 [Compound 28a]
IC50 [1]: 2.5 nM
IC50 [2, 10]: < 1 µM
IC50 [3, 11]: < 1 µM
IC50 ([4]; Homo sapiens): > 50 µM
MST, median survival time [5]: 36 days
Range of the days of death [5]: 28 to 56 days
Tolerability ([6]; i.p., 5 mg/Kg, qdx5/wx3): well tolerated
Tox, dead/treated mice ([6]; i.p., 5 mg/kg, qdx4-5/wx3w): 0/4
TVI %, tumor volume inhibition % in treated over control mice [6, 12]: 66%
BWL %, body weight loss % induced by treatment ([6]; i.p., 5 mg/kg, qdx4-5/wx3w, the highest change is reported): 2%

SMILES: CC[C@H](NC)C(=O)N[C@@H]1C(=O)N2[C@@H](CC[C@@H]1CNCc1ccccc1)CC[C@H]2C(=O)N[C@@H](c1ccccc1)c1cn(CCCCc2ccc(CCCCn3cc([C@@H](NC(=O)[C@@H]4CC[C@@H]5CC[C@H](CNCc6ccccc6)[C@H](NC(=O)[C@H](CC)NC)C(=O)N54)c4ccccc4)nn3)cc2)nn1 [Compound 29a]
IC50 [1]: 12.1 nM
IC50 [2, 10]: < 1 µM

SMILES: CC[C@H](NC)C(=O)N[C@@H]1C(=O)N2[C@@H](CC[C@@H]1CO)CC[C@H]2C(=O)N[C@H](C(=O)NCCCCCCCCNC(=O)[C@@H](NC(=O)[C@@H]1CC[C@@H]2CC[C@H](CO)[C@H](NC(=O)[C@H](CC)NC)C(=O)N21)c1ccccc1)c1ccccc1 [Compound 30a]
IC50 [1]: 1.8 nM
IC50 [2, 10]: < 1 µM

IC50 [7]: 26.7 nM
IC50 [8]: 0.8 nM
IC50 [9]: 2.6 nM
IC50 [1, 13]: 2.9 nM
SMILES: CC[C@H](NC)C(=O)N[C@@H]1C(=O)N2[C@@H](CC[C@@H]1CO)CC[C@H]2C(=O)N[C@H](C(=O)NCCCCNc1c(NCCCCNC(=O)[C@@H](NC(=O)[C@@H]2CC[C@@H]3CC[C@H](CO)[C@H](NC(=O)[C@H](CC)NC)C(=O)N32)c2ccccc2)c(=O)c1=O)c1ccccc1 [Compound 30b]
IC50 [2, 10]: 10 to 50 µM

SMILES: CC[C@H](NC)C(=O)N[C@@H]1C(=O)N2[C@@H](CC[C@@H]1CO)CC[C@H]2C(=O)N[C@H](C(=O)NCCNC(=O)CCC#CC#CCCC(=O)NCCNC(=O)[C@@H](NC(=O)[C@@H]1CC[C@@H]2CC[C@H](CO)[C@H](NC(=O)[C@H](CC)NC)C(=O)N21)c1ccccc1)c1ccccc1 [Compound 30c]
IC50 [2, 10]: 10 to 50 µM

SMILES: CC[C@H](NC)C(=O)N[C@@H]1C(=O)N2[C@@H](CC[C@@H]1CO)CC[C@H]2C(=O)N[C@H](C(=O)NCCCOCCOCCOCCCNC(=O)[C@@H](NC(=O)[C@@H]1CC[C@@H]2CC[C@H](CO)[C@H](NC(=O)[C@H](CC)NC)C(=O)N21)c1ccccc1)c1ccccc1 [Compound 30d]
IC50 [1, 13]: 2.2 nM
IC50 [2, 10]: 10 to 50 µM
IC50 [3, 11]: 10 to 50 µM
IC50 ([4]; Homo sapiens): > 50 µM

SMILES: CC[C@H](NC)C(=O)N[C@@H]1C(=O)N2[C@@H](CC[C@@H]1Cn1cc(CCC(=O)NCCOCCOCCOCCNC(=O)[C@@H](NC(=O)[C@@H]3CC[C@@H]4CC[C@H](CO)[C@H](NC(=O)[C@H](CC)NC)C(=O)N43)c3ccccc3)nn1)CC[C@H]2C(=O)NC(c1ccccc1)c1ccccc1 [Compound 35a]
IC50 [1]: 0.4 nM
IC50 [2, 10]: 1 to 10 µM

SMILES: CC[C@H](NC)C(=O)N[C@@H]1C(=O)N2[C@@H](CC[C@@H]1CNC(=O)COCC(=O)NCCOCCOCCOCCNC(=O)[C@@H](NC(=O)[C@@H]1CC[C@@H]3CC[C@H](CO)[C@H](NC(=O)[C@H](CC)NC)C(=O)N31)c1ccccc1)CC[C@H]2C(=O)NC(c1ccccc1)c1ccccc1 [Compound 36a]
IC50 [1, 13]: 0.2 nM
IC50 [2, 10]: 1 to 10 µM

SMILES: CN[C@@H](C)C(=O)N[C@H]1CCCC[C@H]2CC[C@@H](C(=O)N[C@@H](c3ccccc3)c3cn(CCCCc4ccc(CCCCn5cc([C@@H](NC(=O)[C@@H]6CC[C@@H]7CCCC[C@H](NC(=O)[C@H](C)NC)C(=O)N76)c6ccccc6)nn5)cc4)nn3)N2C1=O [SM164, reference compound]
IC50 [9]: 0.46 nM
IC50 ([2]; 96 hours treatment): < 1 µM
IC50 ([3]; 96 hours treatment): < 1 µM
IC50 [4]: 10 to 50 µM
MST, median survival time [5]: 37 days
Range of the days of death [5]: 24 to 49 days
TVI %, tumor volume inhibition % in treated over control mice [6, 12]: 0%
BWL %, body weight loss % induced by treatment ([6]; mouse, in vivo, ip, 5 mg/kg): 5%

SMILES: CN[C@@H](C)C(=O)N[C@H]1CCCC[C@H]2CC[C@@H](C(=O)N[C@@H](c3ccccc3)c3cn(CCCCc4ccc(CCCCn5cc([C@@H](NC(=O)[C@@H]6CC[C@@H]7CCCC[C@H](NC(=O)[C@H](C)NC)C(=O)N76)c6ccccc6)nn5)cc4)nn3)N2C1=O [SM-164, reference compound]
Antitumor effect ([6]; i.p., 5 mg/Kg, qdx5/wx3, IGROV-1 s.c.): did not display any antitumor effect
